Results reported in article PMC5438973 (Frontiers in Psychiatry, 2017).

How the values were obtained:
Male, Wistar rats = assay: Deprivation-induced drinking; assay type: in vivo, rat; conditions: 18 h water deprivation, 5.6 mg/kg
Experimental: Male, Wistar rats (different from those rats used in the schedule-induced polydipsia studies) were used. They were 320 ± 15 g at the initiation of this study. Water was removed from their home cage for 18 h after which water bottles were presented to each rat in an individual housing cage in a quiet room for 60 min. The weight of the water bottle before and after the 60 min period was measured to the nearest 0.1 g. Six to eight rats were studied per dose. It is noted that this deprivation period is considered stressful. After the experiment, the animals were returned to their living cages with continuous access to food and water.

h5-HT4 = target: T1, h5-HT4 (Homo sapiens, UniProt Q13639); assay: Radioligand binding, human cloned h5-HT4; conditions: agonist radioligand, n = 2, read-out: Affinity, Mean
T1 construct: expressed in transfected cells
Experimental: (§1) Binding affinities at the serotonin receptors were determined by standard radioligand-binding methods using human cloned receptors as reported in the literature ([14], [15]).

Male, NIH Swiss mice [1] = test system: Male, NIH Swiss mice
h5-HT1F = target: T2, h5-HT1F (Homo sapiens, UniProt P30939); assay: Radioligand binding, human cloned h5-HT1F; conditions: agonist radioligand, read-out: Affinity, Mean
T2 construct: expressed in transfected cells
Experimental: as §1

h5-HT1D = target: T3, h5-HT1D (Homo sapiens, UniProt P28221); assay: Radioligand binding, human cloned h5-HT1D; conditions: agonist radioligand, read-out: Affinity, Mean
T3 construct: expressed in transfected cells
Experimental: as §1

Male, NIH Swiss mice [2] = assay: Rotarod performance; assay type: in vivo, mouse; conditions: mice, 10 mg/kg
From the text: Mice were not pretrained on this task.

α1 = assay: CEREP broad receptor screening panel; assay type: binding; parameters: dose or concentration left out as unconfirmed; conditions: CPD 1 (table title), duplicate
Experimental: (§2) Additional selectivity assessment of CPD 1 was performed at CEREP. Methods are available for the multiple assays utilized at http://www.cerep.fr/cerep/users/pages/catalog/assay/catalog.asp. The specific ligand binding to the receptors is defined as the difference between the total binding and the non-specific binding determined in the presence of an excess of unlabeled ligand.

L-Verapamil site = assay: CEREP broad receptor screening panel; assay type: binding; parameters: dose or concentration left out as unconfirmed; conditions: CPD 1 (table title), duplicate
Experimental: as §2

Male, NIH Swiss mice [3] = assay: Nestlet-shredding; conditions: 8/dose group
h5-HT2B [4] = target: T4, h5-HT2B (Homo sapiens, UniProt P41595); assay: Radioligand binding, human cloned h5-HT2B
T4 construct: expressed in transfected cells; host or cells: AV12 cells
Experimental: as §1

h5-HT7 = target: T5, h5-HT7 (Homo sapiens, UniProt P34969); assay: Radioligand binding, human cloned h5-HT7
T5 construct: expressed in transfected cells
Experimental: as §1

h5-HT1E = target: T6, h5-HT1E (Homo sapiens, UniProt P28566); assay: Radioligand binding, human cloned h5-HT1E; conditions: agonist radioligand, read-out: Affinity, Mean
T6 construct: expressed in transfected cells
Experimental: as §1

h5-HT2A = target: T7, h5-HT2A (Homo sapiens, UniProt P28223); assay: GTP-γ-[35S] functional assay (SPA), AV12 cells; assay type: biochemical
T7 construct: expressed in transfected cells; host or cells: AV12 cells
From the text: (§3) 5-HT2 receptors are functionally coupled to specific G-proteins. Agonist activation of 5-HT2 G-protein coupled receptors results in the release of GDP from alpha-subunit (G alpha q or G alpha i) of the G-protein and the subsequent binding of GTP. The binding of the stable analog GTP-g-[^35S] is an indicator of receptor activation. Human cloned 5-HT2A, −2B, and −2C receptors were expressed in AV12 cells. GTP-g-[^35S] nucleotide exchange scintillation proximity assay (SPA) was used to measure binding as previously described ([14]).

h5-HT2B [5] = target: T4, h5-HT2B; assay: GTP-γ-[35S] functional assay (SPA), AV12 cells; assay type: biochemical
From the text: as §3

h5-HT2C = target: T8, h5-HT2C (Homo sapiens, UniProt P28335); assay: GTP-γ-[35S] functional assay (SPA), AV12 cells; assay type: biochemical
T8 construct: expressed in transfected cells; host or cells: AV12 cells
From the text: as §3

h5-HT1B = target: T9, h5-HT1B (Homo sapiens, UniProt P28222); assay: Radioligand binding, human cloned h5-HT1B; conditions: agonist radioligand, read-out: Affinity, Mean
T9 construct: expressed in transfected cells
Experimental: as §1

σ = assay: CEREP broad receptor screening panel; assay type: binding; conditions: CPD 1 10 mM (table title), duplicate
Experimental: as §2

H2 = target: T10, H2 (Homo sapiens, UniProt P25021); assay: CEREP broad receptor screening panel; assay type: binding; conditions: CPD 1 10 µM (table title), duplicate
T10 construct: CEREP
Experimental: as §2

D3 = target: T11, D3 (Homo sapiens, UniProt P35462); assay: CEREP broad receptor screening panel; assay type: binding; conditions: CPD 1 10 µM (table title), duplicate
T11 construct: CEREP
Experimental: as §2

D1 = target: T12, D1 (Homo sapiens, UniProt P21728); assay: CEREP broad receptor screening panel; assay type: binding; conditions: CPD 1 10 µM (table title), duplicate
T12 construct: CEREP
Experimental: as §2

NE transporter = target: T13, NE transporter (Homo sapiens, UniProt P23975); assay: CEREP broad receptor screening panel; assay type: binding; conditions: CPD 1 10 µM (table title), duplicate
T13 construct: CEREP (contract screening)
Experimental: as §2

M3 = target: T14, M3 (Homo sapiens, UniProt P20309); assay: CEREP broad receptor screening panel; assay type: binding; conditions: CPD 1 10 µM (table title), duplicate
T14 construct: CEREP (contract screening)
Experimental: as §2

β2 = target: T15, β2 (Homo sapiens, UniProt P07550); assay: CEREP broad receptor screening panel; assay type: binding; conditions: CPD 1 10 µM (table title), duplicate
T15 construct: CEREP
Experimental: as §2

α2 = assay: CEREP broad receptor screening panel; assay type: binding; conditions: CPD 1 10 mM (table title), duplicate
Experimental: as §2

D5 = target: T16, D5 (Homo sapiens, UniProt P21918); assay: CEREP broad receptor screening panel; assay type: binding; conditions: CPD 1 10 µM (table title), duplicate
T16 construct: CEREP
Experimental: as §2

H1 = target: T17, H1 (Homo sapiens, UniProt P35367); assay: CEREP broad receptor screening panel; assay type: binding; conditions: CPD 1 10 µM (table title), duplicate
T17 construct: CEREP
Experimental: as §2

D2s = target: T18, D2s (Homo sapiens, UniProt P14416); assay: CEREP broad receptor screening panel; assay type: binding; conditions: CPD 1 10 µM (table title), duplicate
T18 construct: CEREP
Experimental: as §2

D4.4 = target: T19, D4.4 (Homo sapiens, UniProt P21917); assay: CEREP broad receptor screening panel; assay type: binding; conditions: CPD 1 10 µM (table title), duplicate
T19 construct: CEREP
Experimental: as §2

M1 = target: T20, M1 (Homo sapiens, UniProt P11229); assay: CEREP broad receptor screening panel; assay type: binding; conditions: CPD 1 10 µM (table title), duplicate
T20 construct: CEREP
Experimental: as §2

Na+ Channel = assay: CEREP broad receptor screening panel; assay type: binding; conditions: CPD 1 10 mM (table title), duplicate
Experimental: as §2

h5-HT1A = target: T21, h5-HT1A (Homo sapiens, UniProt P08908); assay: Radioligand binding, human cloned h5-HT1A; conditions: agonist radioligand, read-out: Affinity, Mean
T21 construct: expressed in transfected cells
Experimental: as §1

[6] = 10 mg/kg, 5 days of consecutive dosing
[7] = GTPgs functional assay, human recombinant cell line

T7 sequence (P28223 whole entry): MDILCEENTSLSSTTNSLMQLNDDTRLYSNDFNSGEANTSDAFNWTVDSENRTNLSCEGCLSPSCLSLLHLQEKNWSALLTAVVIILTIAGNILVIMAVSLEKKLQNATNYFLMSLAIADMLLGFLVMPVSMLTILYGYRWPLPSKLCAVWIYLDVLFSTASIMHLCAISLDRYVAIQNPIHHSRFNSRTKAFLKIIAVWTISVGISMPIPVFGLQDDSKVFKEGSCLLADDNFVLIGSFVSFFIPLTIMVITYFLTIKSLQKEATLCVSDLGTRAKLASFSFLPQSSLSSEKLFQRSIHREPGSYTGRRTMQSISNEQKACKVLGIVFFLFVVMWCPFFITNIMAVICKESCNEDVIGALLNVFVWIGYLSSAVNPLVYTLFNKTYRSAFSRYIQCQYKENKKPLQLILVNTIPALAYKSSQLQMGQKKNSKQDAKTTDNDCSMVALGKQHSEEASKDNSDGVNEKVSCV
T4 sequence (P41595 whole entry): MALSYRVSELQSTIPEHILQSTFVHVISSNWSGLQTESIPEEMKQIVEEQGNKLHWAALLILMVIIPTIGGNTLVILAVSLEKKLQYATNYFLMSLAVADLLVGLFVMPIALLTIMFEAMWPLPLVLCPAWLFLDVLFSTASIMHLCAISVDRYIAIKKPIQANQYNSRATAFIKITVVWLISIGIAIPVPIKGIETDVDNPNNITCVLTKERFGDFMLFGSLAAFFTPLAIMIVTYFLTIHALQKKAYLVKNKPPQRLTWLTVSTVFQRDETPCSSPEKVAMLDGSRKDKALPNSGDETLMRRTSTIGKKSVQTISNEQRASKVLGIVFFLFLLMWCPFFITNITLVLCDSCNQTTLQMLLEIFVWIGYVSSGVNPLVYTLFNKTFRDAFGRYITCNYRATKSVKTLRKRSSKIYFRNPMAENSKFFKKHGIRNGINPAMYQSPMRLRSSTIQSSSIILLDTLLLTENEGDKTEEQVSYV
T8 sequence (P28335 33-458): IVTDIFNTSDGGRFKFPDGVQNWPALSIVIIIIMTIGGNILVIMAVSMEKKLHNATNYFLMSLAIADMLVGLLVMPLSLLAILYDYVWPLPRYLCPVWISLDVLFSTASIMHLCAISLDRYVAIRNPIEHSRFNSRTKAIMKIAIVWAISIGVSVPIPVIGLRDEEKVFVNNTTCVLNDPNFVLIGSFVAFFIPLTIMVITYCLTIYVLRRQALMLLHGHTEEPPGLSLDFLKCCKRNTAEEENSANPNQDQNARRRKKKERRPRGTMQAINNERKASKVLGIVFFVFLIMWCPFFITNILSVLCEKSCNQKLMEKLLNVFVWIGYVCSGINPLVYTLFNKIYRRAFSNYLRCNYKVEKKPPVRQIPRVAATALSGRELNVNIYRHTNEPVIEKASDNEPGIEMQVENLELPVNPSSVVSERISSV
T5 sequence (P34969 whole entry): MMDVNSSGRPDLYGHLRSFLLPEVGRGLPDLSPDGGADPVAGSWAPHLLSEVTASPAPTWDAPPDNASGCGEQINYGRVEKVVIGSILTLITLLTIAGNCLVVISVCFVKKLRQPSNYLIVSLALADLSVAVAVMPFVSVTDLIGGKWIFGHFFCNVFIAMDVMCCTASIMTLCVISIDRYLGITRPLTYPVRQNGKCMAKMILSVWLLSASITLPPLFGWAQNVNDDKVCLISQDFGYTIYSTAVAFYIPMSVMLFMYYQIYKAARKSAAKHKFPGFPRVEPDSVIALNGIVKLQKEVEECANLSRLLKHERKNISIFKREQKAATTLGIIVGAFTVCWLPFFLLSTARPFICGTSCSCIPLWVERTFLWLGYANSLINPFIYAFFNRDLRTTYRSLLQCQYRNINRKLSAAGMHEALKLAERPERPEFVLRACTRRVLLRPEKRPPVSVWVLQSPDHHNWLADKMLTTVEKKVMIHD
T9 sequence (P28222 whole entry): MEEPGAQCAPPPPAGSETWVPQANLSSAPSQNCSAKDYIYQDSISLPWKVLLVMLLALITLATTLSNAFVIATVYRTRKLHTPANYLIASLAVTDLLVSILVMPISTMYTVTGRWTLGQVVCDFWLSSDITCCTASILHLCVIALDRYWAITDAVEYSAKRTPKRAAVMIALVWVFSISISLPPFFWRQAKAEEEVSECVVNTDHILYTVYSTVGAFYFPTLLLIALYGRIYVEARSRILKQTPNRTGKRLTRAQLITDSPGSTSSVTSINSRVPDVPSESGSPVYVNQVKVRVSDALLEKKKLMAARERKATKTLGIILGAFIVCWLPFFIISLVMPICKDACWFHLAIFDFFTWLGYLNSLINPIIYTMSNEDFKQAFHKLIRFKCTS
T15 sequence (P07550 whole entry): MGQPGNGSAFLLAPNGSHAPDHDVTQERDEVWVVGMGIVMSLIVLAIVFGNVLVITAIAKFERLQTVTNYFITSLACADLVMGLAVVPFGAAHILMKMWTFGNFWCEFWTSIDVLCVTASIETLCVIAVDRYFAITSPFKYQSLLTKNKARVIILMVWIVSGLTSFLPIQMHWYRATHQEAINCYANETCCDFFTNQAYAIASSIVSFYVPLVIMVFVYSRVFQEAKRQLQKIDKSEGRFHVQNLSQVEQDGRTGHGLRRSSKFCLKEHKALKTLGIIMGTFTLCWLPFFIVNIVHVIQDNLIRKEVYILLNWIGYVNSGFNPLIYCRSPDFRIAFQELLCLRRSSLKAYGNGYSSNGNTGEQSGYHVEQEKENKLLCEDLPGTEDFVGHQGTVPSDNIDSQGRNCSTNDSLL
T2 sequence (P30939 whole entry): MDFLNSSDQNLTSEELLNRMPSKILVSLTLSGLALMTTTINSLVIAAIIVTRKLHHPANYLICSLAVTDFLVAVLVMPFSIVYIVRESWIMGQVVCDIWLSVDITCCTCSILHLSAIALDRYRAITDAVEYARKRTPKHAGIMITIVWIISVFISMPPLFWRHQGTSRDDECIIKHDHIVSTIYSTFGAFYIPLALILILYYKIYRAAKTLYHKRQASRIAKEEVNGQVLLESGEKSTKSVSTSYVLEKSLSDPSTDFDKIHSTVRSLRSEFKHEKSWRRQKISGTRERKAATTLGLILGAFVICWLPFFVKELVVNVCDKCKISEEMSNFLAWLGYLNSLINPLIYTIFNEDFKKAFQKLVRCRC
T1 sequence (Q13639 whole entry): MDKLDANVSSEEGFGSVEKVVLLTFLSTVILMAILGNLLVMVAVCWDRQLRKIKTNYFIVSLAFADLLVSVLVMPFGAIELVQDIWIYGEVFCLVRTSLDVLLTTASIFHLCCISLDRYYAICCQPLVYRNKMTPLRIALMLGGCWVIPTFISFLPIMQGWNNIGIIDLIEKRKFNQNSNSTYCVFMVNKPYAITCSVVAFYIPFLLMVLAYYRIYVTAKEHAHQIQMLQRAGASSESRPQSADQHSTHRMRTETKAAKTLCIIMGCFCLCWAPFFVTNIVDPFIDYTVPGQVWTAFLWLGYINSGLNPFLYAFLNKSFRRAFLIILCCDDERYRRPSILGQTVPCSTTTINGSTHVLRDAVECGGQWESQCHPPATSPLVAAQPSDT
T16 sequence (P21918 whole entry): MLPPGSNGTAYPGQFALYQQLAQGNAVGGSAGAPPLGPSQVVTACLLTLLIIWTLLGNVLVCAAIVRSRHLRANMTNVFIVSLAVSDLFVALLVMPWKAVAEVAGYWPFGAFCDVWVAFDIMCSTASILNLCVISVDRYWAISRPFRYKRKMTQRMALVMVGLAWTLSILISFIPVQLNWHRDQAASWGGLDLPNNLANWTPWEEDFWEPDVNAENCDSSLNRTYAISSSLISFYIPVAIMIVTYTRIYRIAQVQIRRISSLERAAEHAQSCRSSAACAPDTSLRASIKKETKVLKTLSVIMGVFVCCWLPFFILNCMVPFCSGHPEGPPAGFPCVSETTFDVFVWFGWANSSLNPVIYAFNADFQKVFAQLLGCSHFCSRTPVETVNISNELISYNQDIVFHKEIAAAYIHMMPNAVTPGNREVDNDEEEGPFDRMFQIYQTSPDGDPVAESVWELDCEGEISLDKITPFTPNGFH
T18 sequence (P14416 1-414 isoform P14416-2): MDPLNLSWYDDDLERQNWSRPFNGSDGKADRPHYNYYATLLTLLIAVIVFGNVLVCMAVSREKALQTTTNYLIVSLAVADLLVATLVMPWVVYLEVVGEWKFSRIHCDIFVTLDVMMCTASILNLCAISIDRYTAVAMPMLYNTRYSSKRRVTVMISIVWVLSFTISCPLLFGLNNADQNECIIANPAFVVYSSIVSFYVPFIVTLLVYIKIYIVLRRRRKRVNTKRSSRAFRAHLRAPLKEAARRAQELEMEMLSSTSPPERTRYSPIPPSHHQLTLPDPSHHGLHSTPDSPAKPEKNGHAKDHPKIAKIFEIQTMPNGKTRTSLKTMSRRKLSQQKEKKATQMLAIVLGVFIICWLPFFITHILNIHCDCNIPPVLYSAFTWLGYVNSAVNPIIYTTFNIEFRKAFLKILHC
T21 sequence (P08908 whole entry): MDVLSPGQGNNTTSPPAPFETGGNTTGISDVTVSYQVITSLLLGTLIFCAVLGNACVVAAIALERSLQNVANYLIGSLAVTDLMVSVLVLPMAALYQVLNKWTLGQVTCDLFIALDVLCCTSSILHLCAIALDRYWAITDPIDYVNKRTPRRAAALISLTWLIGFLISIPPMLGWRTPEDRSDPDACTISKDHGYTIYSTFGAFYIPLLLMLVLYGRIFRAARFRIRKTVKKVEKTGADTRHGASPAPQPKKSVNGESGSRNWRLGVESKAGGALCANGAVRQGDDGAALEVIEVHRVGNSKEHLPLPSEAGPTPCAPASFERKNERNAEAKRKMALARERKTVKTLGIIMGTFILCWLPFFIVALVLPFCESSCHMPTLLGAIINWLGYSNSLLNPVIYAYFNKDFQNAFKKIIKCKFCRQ

Question: Which “Reduction of deprivation-induced drinking” value (Male, Wistar rats) does the source give for `C[C@H]1CN(c2ccc(C(F)(F)F)c3ccoc23)CCN1` [CPD 1, (3S)-3-methyl-1-[4-(trifluoromethyl)-7-benzofuranyl]-piperazine] here?
Answer: 50%

Question: What about the Ki (h5-HT4) of the same molecule?
Answer: 977 nM

Question: And the “Effect on marble-burying compared to vehicle over five consecutive days” value (Male, NIH Swiss mice [1]; [6])?
Answer: significantly decreased

Question: What about the “Tolerance to suppressant effect on marble-burying with repeated dosing” value (Male, NIH Swiss mice [1]; [6]) of the same molecule?
Answer: did not produce tolerance

Question: What about the “Marble-burying, minimal effective dose” value (Male, NIH Swiss mice [1]; 12/dose group) of the same molecule?
Answer: 10 milligrams per kilogram

Question: What about the Ki (h5-HT1F) of the same molecule?
Answer: 540 nM

Question: What about the Ki (h5-HT1D) of the same molecule?
Answer: 296 nM

Question: And the “Rotarod falls and failures” value (Male, NIH Swiss mice [2]; after 5 days of dosing, 12 mice)?
Answer: neither falls nor failures

Question: What about the “Rotarod failures (mice failing / tested)” value (Male, NIH Swiss mice [2]; day 1) of the same molecule?
Answer: 0/12

Question: What about the “Rotarod falls (mice falling / tested)” value (Male, NIH Swiss mice [2]; day 1) of the same molecule?
Answer: 2/12

Question: And the “% Inhibition” value (α1)?
Answer: 82%

Question: And the “% Inhibition” value (L-Verapamil site)?
Answer: 59%

Question: What about the “Nestlet-shredding, minimal effective dose” value (Male, NIH Swiss mice [3]) of the same molecule?
Answer: 3 milligrams per kilogram

Question: What about the Ki (h5-HT2B [4]; agonist radioligand, h5-HT2B, read-out: Affinity, Mean) of the same molecule?
Answer: 104 nM

Question: And the “selectivity for h5-HT2C over h5-HT2B receptors” value (h5-HT2B [4]; binding affinities)?
Answer: 50 fold

Question: And the Ki (h5-HT7; agonist radioligand, h5-HT7, read-out: Affinity, Mean)?
Answer: > 2000 nM

Question: What about the inhibition at 2 µM (h5-HT7; at a concentration of 2 µM) of the same molecule?
Answer: < 50%

Question: What about the Ki (h5-HT1E) of the same molecule?
Answer: 1040 nM

Question: And the “Functional activity (kind of agonism)” value (h5-HT2A; 5-HT2A)?
Answer: partial agonist

Question: What about the EC50 (h5-HT2A; [7]) of the same molecule?
Answer: 269 ± 19 nM

Question: And the Emax (h5-HT2A; [7])?
Answer: 53 ± 2%

Question: And the “Functional activity (kind of agonism)” value (h5-HT2B [5]; 5-HT2B)?
Answer: partial agonist

Question: What about the EC50 (h5-HT2B [5]; [7]) of the same molecule?
Answer: 97 ± 23 nM

Question: What about the Emax (h5-HT2B [5]; [7]) of the same molecule?
Answer: 51%

Question: And the “Functional activity (kind of agonism)” value (h5-HT2C; 5-HT2C)?
Answer: full agonist

Question: And the EC50 (h5-HT2C; [7])?
Answer: 8.1 ± 0.5 nM

Question: What about the Emax (h5-HT2C; [7]) of the same molecule?
Answer: 110 ± 1%

Question: And the Ki (h5-HT1B)?
Answer: 1110 nM

Question: And the “% Inhibition” value (σ)?
Answer: 100%

Question: What about the inhibition at 10 µM (H2) of the same molecule?
Answer: 70%

Question: And the inhibition at 10 µM (D3)?
Answer: 82%

Question: And the inhibition at 10 µM (D1)?
Answer: 94%

Question: What about the inhibition at 10 µM (NE transporter) of the same molecule?
Answer: 74%

Question: What about the inhibition at 10 µM (M3) of the same molecule?
Answer: 76%

Question: What about the inhibition at 10 µM (β2) of the same molecule?
Answer: 104%

Question: What about the “% Inhibition” value (α2) of the same molecule?
Answer: 70%

Question: And the inhibition at 10 µM (D5)?
Answer: 69%

Question: What about the inhibition at 10 µM (H1) of the same molecule?
Answer: 93%

Question: What about the inhibition at 10 µM (D2s) of the same molecule?
Answer: 61%

Question: And the inhibition at 10 µM (D4.4)?
Answer: 105%

Question: And the inhibition at 10 µM (M1)?
Answer: 56%

Question: And the “% Inhibition” value (Na+ Channel)?
Answer: 101%

Question: What about the Ki (h5-HT1A) of the same molecule?
Answer: 205 nM
